Measured values published in PubChem BioAssay AID330 (DTP/NCI, 2004).
Values joined by “and” are separate entries in the source; they are usually repeats but may differ in a detail not shown here. Equal entries are not always repeated. Toxic doses and inconclusive results are not listed.

System: P388 leukemia ip, CD2F1 mice, survival T/C
Assay: NCI In Vivo Anticancer Drug Screen. Data for tumor model P388 Leukemia (intraperitoneal) in CD2F1 (CDF1) mice
Conditions: endpoint: median survival time, higher = longer survival
How it was run: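 Mice carrying the transplanted tumor received test compound or vehicle. Survival was recorded in each group, and the value is the treated-group measurement divided by that of the vehicle-treated control group.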

[1] = dose: 50.0 mg/kg/injection, schedule: Q01DX005 (ip), vehicle: saline with Tween-80
[2] = dose: 100.0 mg/kg/injection, schedule: Q01DX005 (ip), vehicle: saline with Tween-80
[3] = dose: 100.0 mg/kg/injection, schedule: Q04DX003 (ip), vehicle: Klucel (hydroxypropylcellulose) (HPC)
[4] = dose: 200.0 mg/kg/injection, schedule: Q04DX003 (ip), vehicle: Klucel (hydroxypropylcellulose) (HPC)
[5] = dose: 400.0 mg/kg/injection, schedule: Q04DX003 (ip), vehicle: Klucel (hydroxypropylcellulose) (HPC)

## O=c1oc(-c2ccccc2)nnc1-c1ccccc1
dose: 50.0 mg/kg/injection, schedule: Q01DX009 (ip), vehicle: Klucel (hydroxypropylcellulose) (HPC)
  T/C: 100 % of control
dose: 100.0 mg/kg/injection, schedule: Q01DX009 (ip), vehicle: Klucel (hydroxypropylcellulose) (HPC)
  T/C: 101 % of control
dose: 200.0 mg/kg/injection, schedule: Q01DX009 (ip), vehicle: Klucel (hydroxypropylcellulose) (HPC)
  T/C: 107 % of control

## O=[N+]([O-])c1ccc(S(=O)(=O)Cc2ccccc2)c2nonc12
dose: 3.12 mg/kg/injection, schedule: Q01DX009 (ip), vehicle: saline with Tween-80
  T/C: 99 % of control
dose: 6.25 mg/kg/injection, schedule: Q01DX009 (ip), vehicle: saline with Tween-80
  T/C: 107 % of control
dose: 12.5 mg/kg/injection, schedule: Q01DX009 (ip), vehicle: saline with Tween-80
  T/C: 100 % of control

## O=C(Nc1ccccc1)/C(Cl)=C(/Cl)C(=O)C(Cl)(Cl)Cl
dose: 12.5 mg/kg/injection, schedule: Q01DX009 (ip), vehicle: distilled water + Tween-80
  T/C: 103 % of control
dose: 25.0 mg/kg/injection, schedule: Q01DX009 (ip), vehicle: distilled water + Tween-80
  T/C: 103 % of control

## Nc1ccccc1N=Cc1c(O)c2ccccc2oc1=O
[1]
  T/C: 93 % of control
[2]
  T/C: 98 % of control

## CCOC(=O)CCC[n+]1cccc(C#N)c1
dose: 31.25 mg/kg/injection, schedule: Q01DX005 (ip), vehicle: Klucel (hydroxypropylcellulose) (HPC)
  T/C: 101 % of control
dose: 62.5 mg/kg/injection, schedule: Q01DX005 (ip), vehicle: Klucel (hydroxypropylcellulose) (HPC)
  T/C: 103 % of control
dose: 125.0 mg/kg/injection, schedule: Q01DX005 (ip), vehicle: Klucel (hydroxypropylcellulose) (HPC)
  T/C: 96 % of control

## C1CN1P1(N2CC2)=NP(N2CC2)(N2CC2)=NP(N2CC2)(N2CC2)=NP(N2CC2)(N2CC2)=N1
dose: 5.0 mg/kg/injection, schedule: Q01DX009 (ip), vehicle: saline
  T/C: 195 % of control
dose: 10.0 mg/kg/injection, schedule: Q01DX009 (ip), vehicle: saline
  T/C: 222 % of control

## CC(=O)OC1CCC(C2CCCCC2)CC1 (centres undefined)
dose: 100.0 mg/kg/injection, schedule: Q01DX009 (ip), vehicle: saline
  T/C: 102 % of control
dose: 200.0 mg/kg/injection, schedule: Q01DX009 (ip), vehicle: saline
  T/C: 97 % of control
dose: 400.0 mg/kg/injection, schedule: Q01DX009 (ip), vehicle: saline
  T/C: 101 % of control

## O=C(Nc1ccccc1)Nc1ccccc1C(=O)O
dose: 50.0 mg/kg/injection, schedule: Q04DX003 (ip), vehicle: Klucel (hydroxypropylcellulose) (HPC)
  T/C: 100 % of control
[3]
  T/C: 107 % of control
[4]
  T/C: 109 % of control
[5]
  T/C: 93 % of control

## OCC1OC2OCCOC2OC1CO (centres undefined)
dose: 100.0 mg/kg/injection, schedule: Q01DX001 (ip), vehicle: saline
  T/C: 102 % of control
dose: 200.0 mg/kg/injection, schedule: Q01DX001 (ip), vehicle: saline
  T/C: 96 % of control
dose: 400.0 mg/kg/injection, schedule: Q01DX001 (ip), vehicle: saline
  T/C: 102 % of control

## BrC[P+](CBr)(CBr)CBr
dose: 12.5 mg/kg/injection, schedule: Q01DX009 (ip), vehicle: saline
  T/C: 151 % of control
dose: 25.0 mg/kg/injection, schedule: Q01DX009 (ip), vehicle: saline
  T/C: 150 % of control
[1]
  T/C: 114 % of control and 117 % of control
dose: 50.0 mg/kg/injection, schedule: Q01DX009 (ip), vehicle: saline with Tween-80
  T/C: 151 % of control
dose: 50.0 mg/kg/injection, schedule: Q01DX009 (ip), vehicle: saline
  T/C: 163 % of control
[2]
  T/C: 123 % of control
dose: 100.0 mg/kg/injection, schedule: Q01DX009 (ip), vehicle: saline with Tween-80
  T/C: 157 % of control

## O=C1c2cccc(NCCNCCO)c2C(=O)c2cccc(Cl)c21
dose: 5.0 mg/kg/injection, schedule: Q01DX009 (ip), vehicle: acid diluted with saline
  T/C: 98 % of control
dose: 10.0 mg/kg/injection, schedule: Q01DX009 (ip), vehicle: acid diluted with saline
  T/C: 113 % of control
dose: 20.0 mg/kg/injection, schedule: Q01DX009 (ip), vehicle: acid diluted with saline
  T/C: 115 % of control
dose: 40.0 mg/kg/injection, schedule: Q01DX009 (ip), vehicle: acid diluted with saline
  T/C: 113 % of control
dose: 80.0 mg/kg/injection, schedule: Q01DX009 (ip), vehicle: acid diluted with saline
  T/C: 124 % of control
dose: 160.0 mg/kg/injection, schedule: Q01DX009 (ip), vehicle: acid diluted with saline
  T/C: 120 % of control

## c1cc2cc3c(cc2o1)OC[C@H]1c2cc4c(cc2O[C@@H]31)OCO4
dose: 100.0 mg/kg/injection, schedule: Q01DX001 (ip), vehicle: Klucel (hydroxypropylcellulose) (HPC)
  T/C: 91 % of control
dose: 200.0 mg/kg/injection, schedule: Q01DX001 (ip), vehicle: Klucel (hydroxypropylcellulose) (HPC)
  T/C: 87 % of control

## O=C1NC(=O)C(C(=O)Nc2ccc(Cl)cc2)c2ccccc21 (centres undefined)
dose: 50.0 mg/kg/injection, schedule: Q01DX005 (ip), vehicle: Klucel (hydroxypropylcellulose) (HPC)
  T/C: 101 % of control
dose: 100.0 mg/kg/injection, schedule: Q01DX005 (ip), vehicle: Klucel (hydroxypropylcellulose) (HPC)
  T/C: 95 % of control
dose: 200.0 mg/kg/injection, schedule: Q01DX005 (ip), vehicle: Klucel (hydroxypropylcellulose) (HPC)
  T/C: 99 % of control

## CC1=NNC(=S)NCCCN2CCN(CCCNC(=S)NN=C(C)C=NNC(=S)NCCCN3CCN(CCCNC(=S)NN=C1)CC3)CC2
dose: 50.0 mg/kg/injection, schedule: Q01DX005 (ip), vehicle: suspension in saline
  T/C: 106 % of control
dose: 100.0 mg/kg/injection, schedule: Q01DX005 (ip), vehicle: suspension in saline
  T/C: 113 % of control
dose: 200.0 mg/kg/injection, schedule: Q01DX005 (ip), vehicle: suspension in saline
  T/C: 106 % of control

## O=C1C(N2CCOCC2)=C(N2CC2)C(=O)C(N2CCOCC2)=C1N1CC1
dose: 0.25 mg/kg/injection, schedule: Q01DX009 (ip), vehicle: saline
  T/C: 119 % of control
dose: 0.5 mg/kg/injection, schedule: Q01DX009 (ip), vehicle: saline
  T/C: 152 % of control
dose: 0.66 mg/kg/injection, schedule: Q01DX009 (ip), vehicle: saline
  T/C: 153 % of control
dose: 1.0 mg/kg/injection, schedule: Q01DX009 (ip), vehicle: saline
  T/C: 152 % of control and 161 % of control
dose: 1.5 mg/kg/injection, schedule: Q01DX009 (ip), vehicle: saline
  T/C: 170 % of control

## C[Si](C)(C)CSC#N
dose: 7.5 mg/kg/injection, schedule: Q01DX005 (ip), vehicle: saline with Tween-80
  T/C: 97 % of control
dose: 15.0 mg/kg/injection, schedule: Q01DX005 (ip), vehicle: saline with Tween-80
  T/C: 101 % of control
dose: 30.0 mg/kg/injection, schedule: Q01DX005 (ip), vehicle: saline with Tween-80
  T/C: 104 % of control

## C=CCC1(C)C(=O)CCC1=O
dose: 60.0 mg/kg/injection, schedule: Q01DX005 (ip), vehicle: saline with Tween-80
  T/C: 110 % of control
dose: 120.0 mg/kg/injection, schedule: Q01DX005 (ip), vehicle: saline with Tween-80
  T/C: 102 % of control
dose: 240.0 mg/kg/injection, schedule: Q01DX005 (ip), vehicle: saline with Tween-80
  T/C: 98 % of control

## O=C(O)c1c(Cl)c(Cl)c(Cl)c(Cl)c1C(=O)Nc1ccc2cn[nH]c2c1
dose: 50.0 mg/kg/injection, schedule: Q01DX009 (ip), vehicle: saline + alcohol
  T/C: 101 % of control
dose: 100.0 mg/kg/injection, schedule: Q01DX009 (ip), vehicle: saline + alcohol
  T/C: 100 % of control

## C=Cn1c([N+](=O)[O-])cnc1/C=C/c1ccc(C(=O)NC)cc1
dose: 100.0 mg/kg/injection, schedule: Q04DX002 (ip), vehicle: saline with Tween-80
  T/C: 100 % of control
dose: 200.0 mg/kg/injection, schedule: Q04DX002 (ip), vehicle: saline with Tween-80
  T/C: 102 % of control
dose: 400.0 mg/kg/injection, schedule: Q04DX002 (ip), vehicle: saline with Tween-80
  T/C: 95 % of control

## CN(C)C(=O)Nc1ccc(-c2cccnc2)cc1
dose: 60.0 mg/kg/injection, schedule: Q01DX005 (ip), vehicle: saline
  T/C: 109 % of control
dose: 120.0 mg/kg/injection, schedule: Q01DX005 (ip), vehicle: saline
  T/C: 107 % of control
dose: 240.0 mg/kg/injection, schedule: Q01DX005 (ip), vehicle: saline
  T/C: 93 % of control

## CC[n+]1c([S-])nn(C)c1-c1cnccn1
[1]
  T/C: 106 % of control
[2]
  T/C: 108 % of control
dose: 200.0 mg/kg/injection, schedule: Q01DX005 (ip), vehicle: saline with Tween-80
  T/C: 102 % of control

## O=c1c[n+](-c2ccccc2)[nH]o1
[3]
  T/C: 109 % of control
[4]
  T/C: 100 % of control
[5]
  T/C: 104 % of control

## Oc1c(Cl)cc(Cl)cc1CN1CCCCC1
dose: 50.0 mg/kg/injection, schedule: Q01DX009 (ip), vehicle: suspension in saline
  T/C: 91 % of control
dose: 100.0 mg/kg/injection, schedule: Q01DX009 (ip), vehicle: suspension in saline
  T/C: 98 % of control
dose: 200.0 mg/kg/injection, schedule: Q01DX009 (ip), vehicle: suspension in saline
  T/C: 91 % of control
